Laboratory results: patent publication US20100273651A1 (priority 2007, published 2010)
Read-outs that look alike come from different tables or passages of the source.

Columns and labels:
[1] = test system: Septoria tritici; experiment: Use example No. 3: activity against Septoria tritici in the microtiter test (Septtr); type: cell-based; conditions: relative growth vs active compound-free control (100%), 405 nm, day 7
[2] = test system: Phakopsora pachyrhizi; experiment: Use Example 1: curative activity against soybean rust, greenhouse (Phakpa K1); type: in vivo; conditions: soybean seedlings sprayed 24 h after inoculation, visual rating after 14 days, untreated 90
Protocol: (§1) The active compounds were prepared separately or jointly as a stock solution comprising 25 mg of active compound which was made up to 10 ml using a mixture of acetone and/or DMSO and the emulsifier Uniperolt EL (wetting agent having emulsifying and dispersing action based on ethoxylated alkyl phenols) in a volume ratio of solvent/emulsifier of 99:1. The mixture was then made up to 100 ml with water. This stock solution was diluted with the solvent/emulsifier/water mixture described to give the concentration of active compounds stated below. Alternatively, the active compounds were used as a commercial finished formulation and diluted with water to the concentration of active compounds stated.
Leaves of potted soybean seedlings were inoculated with a spore suspension of soybean rust (Phakpsora pachyrhizi). The pots were then placed in a chamber with high atmospheric humidity (90 to 95%) and at 23 to 27° C. for 24 hours. During this time, the spores germinated and the germ tubes penetrated into the leaf tissue. The infected plants were then sprayed to runoff point with the active compound solution described above at the active compound concentration stated below. After the spray coating had dried on, the test plants were cultivated in a greenhouse at temperatures between 23 and 27° C. and 60 to 80% relative atmospheric humidity for 14 days. The extent of the rust fungus development on the leaves was then determined visually in percent infection.

[3] = test system: Pyricularia oryzae; type: cell-based
[4] = test system: Septoria tritici; experiment: Use Example 2: protective activity against Septoria leaf spot of wheat, greenhouse (Septtr P2); type: in vivo; conditions: wheat seedlings inoculated 2 days after spraying, % infection of total leaf area after 21 days, untreated 90
Protocol: as §1
Leaves of potted wheat seedlings were sprayed to runoff point with an aqueous suspension having the active compound concentration stated below. 2 days after the spray coating had dried on, they were inoculated with an aqueous spore suspension of Septoria tritici. The test plants were then placed in a greenhouse at temperatures between 20 and 24° C. and a relative atmospheric humidity close to 100% for 4 days and then at temperatures between 18 and 22° C. and an atmospheric humidity of about 70%. After 21 days, the extent of the development of the disease was determined visually in % infection of the total leaf area.

[5] = test system: Leptno; experiment: Comparative experiments: growth of Leptno (microtest, method not described); type: cell-based; conditions: comparative experiments against prior-art compound
[6] = relative growth vs active compound-free control (100%), 405 nm, day 7
[7] = comparative experiments against prior-art compound

1,2-bis[1-rel-(2S,3R)-2-(2-chlorophenyl)-3-(2,4-dichlorophenyl)oxiran-2-ylmethyl-1H-1,2,4-triazole-5-yl]disulfane [Compound 14]
Growth in % at 31 ppm for Septtr [1]: 4%

1-[rel-(2S,3R)-2-(2-chlorophenyl)-3-(2,4-dichlorophenyl)oxiran-2-ylmethyl]-1H-1,2,4-triazole-5(4H-6-thione [Compound 2]
Infection in % at 150 ppm for Phakpa K1 [2]: 3%
Growth in % at 31 ppm for Pyrior [3, 6]: 5%
Infection in % at 150 ppm for Septtr P2 [4]: 10%

S=c1[nH]cnn1C[C@]1(c2ccccc2)O[C@@H]1c1ccc(Cl)c(Cl)c1Cl (relative stereo) [Compound 4, 1-[rel-(2S,3R)-2-phenyl-3-(2,3,4-trichlorophenyl)oxiran-2-ylmethyl]-1H-1,2,4-triazole-5(4H)-thione]
Infection in % at 150 ppm for Phakpa K1 [2]: 0%
Infection in % at 150 ppm for Septtr P2 [4]: 15%

CSc1ncnn1C[C@]1(c2ccccc2Cl)O[C@@H]1c1ccc(Cl)cc1Cl (relative stereo) [Compound 5, 1-[rel-(2S,3R)-2-(2-chlorophenyl)-3-(2,4-dichlorophenyl)oxiran-2-ylmethyl]-5-(methylthio)-1H-1,2,4-triazole]
Growth in % at 31 ppm for Septtr [1]: 0%
Growth in % at 31 ppm for Pyrior [3, 7]: 0%

CSc1ncnn1C[C@]1(c2ccc(F)cc2)O[C@@H]1c1cccc(Cl)c1F (relative stereo) [Compound 7, 1-[rel-(2S,3R)-3-(3-chloro-2-fluorophenyl)-2-(4-fluorophenyl)oxiran-2-ylmethyl]-5-(methylthio)-1,2,4-triazole]
Infection in % at 600 ppm for Phakpa K1 ([2]; 600 ppm): 0%

CS(=O)(=O)c1ncnn1C[C@]1(c2ccccc2Cl)O[C@@H]1c1ccc(Cl)cc1Cl (relative stereo) [Compound 8, 1-[rel-(2S,3R)-2-(2-chlorophenyl)-3-(2,4-dichlorophenyl)-oxiran-2-ylmethyl]-5-(methylsulfonyl)-1H-1,2,4-triazole]
Growth in % at 31 ppm for Pyrior [3, 6]: 8%

CC(=O)Sc1ncnn1C[C@]1(c2ccccc2Cl)O[C@@H]1c1ccc(Cl)cc1Cl (relative stereo) [Compound 9, S-1-[rel-(2S,3R)-2-(2-chlorophenyl)-3-(2,4-dichorophenyl)oxiran-2-ylmethyl]-1H-1,2,4-triazole-5-ylethanethioate]
Growth in % at 31 ppm for Pyrior [3, 6]: 1%

CC(=O)Sc1ncnn1C[C@]1(c2ccccc2)O[C@@H]1c1ccc(Cl)c(Cl)c1Cl (relative stereo) [Compound 10, S-1-[rel-(2S,3R)-2-phenyl)-3-(2,3,4-trichlorophenyl)oxiran-2-ylmethyl]-1H-1,2,4-triazole-5-yl ethanethioate]
Growth in % at 31 ppm for Septtr [1]: 5%

COC(=O)Sc1ncnn1C[C@]1(c2ccccc2Cl)O[C@@H]1c1ccc(Cl)cc1Cl (relative stereo) [Compound 11, S-{2-[2-(2-chlorophenyl)-3-(2,4-dichlorophenyl)oxiranylmethyl]-2H-[1,2,4]triazole-3-yl}methyl rel-(2S,3R)-thiocarbonate]
Growth in % at 31 ppm for Pyrior [3, 6]: 3%

N#CSc1ncnn1C[C@]1(c2ccccc2Cl)O[C@@H]1c1ccc(Cl)cc1Cl (relative stereo) [Compound 12, 1-[rel-(2S,3R)-2-(2-chlorophenyl)-3-(2,4-dichlorophenyl)oxiran-2-ylmethyl]-5-thlocyanato-1H-1,2,4-triazole]
Infection in % at 150 ppm for Phakpa K1 [2]: 0%
Infection in % at 150 ppm for Septtr P2 [4]: 10%

[Na+].[S-]c1ncnn1C[C@]1(c2ccccc2Cl)O[C@@H]1c1ccc(Cl)cc1Cl (relative stereo) [Compound 13, sodium rel-(2S,3R)-2-(2-chlorophenyl)-3-(2,4-dichlorophenyl)oxiran-2-ylethyl]-1H-[1,2,4]triazole-5-thiolate]
Growth in % at 31 ppm for Leptno [5]: 19%
Growth in % at 31 ppm for Pyrior [3, 6]: 19%

CSc1ncnn1C[C@]1(c2ccccc2Cl)O[C@@H]1c1ccccc1Cl [WO9638440, p. 14 (5th compound), reference compound]
Growth in % at 31 ppm for Pyrior [3, 7]: 83%

[Na+].[S-]c1ncnn1C[C@]1(c2ccccc2Cl)O[C@@H]1c1ccccc1Cl [WO9741107, p. 50 (5th compound), reference compound]
Growth in % at 31 ppm for Leptno [5]: 51%
